The values below come from patent publication US4727062A, “3-Halovinylglycine antibacterial agents” (Merck & Co., Inc., priority 1986, dated 1988).

For assay [1], the system named is E. coli DC2. The assay is described as follows: Agar dilution assay, M.I.C. It is filed as cell-based. Here is the method:
(§1) Representative 3-halovinylglycines and amino acid conjugates were tested for antibacterial activity by an agar dilution assay [being an modification of the antagonist-free-medium assay described in: Antimicrobial Agents and Chemotherapy, May 1979, pp 677-683 and pp 684-695]. Compounds asayed include (L) and (D)-3-chlorovinylglycine (HCL salts), (L) norvalyl-(L), (D), and (DL)-3-chlorovinylglycine (CF3 COOH salts), and (L) norvalyl-(L), (D), and (DL)-3 fluorovinylglycine (CF3 COOH) salts.
(§2) The antibacterial activity of the representative structure I compounds versus eleven representative strains of pathogenic bacteria is shown in the following Table.
(§3) Agar Dilution Asay [minimum inhibitory concentration (M.I.C.)-mg/ml]
In general terms: In agar dilution the substance is mixed into plates at graded concentrations.

Assay [2] has as its system E. coli TEM 2^+. Kind of assay: Agar dilution assay, M.I.C. It is filed as cell-based. Here is the method:
as §1, §2, §3

The test system of assay [3] is E. coli. Kind of assay: Agar dilution assay, M.I.C. It is filed as cell-based. Here is the method:
as §1, §2, §3

The test system of assay [4] is Ent. cloacae P99^-. The assay is described as follows: Agar dilution assay, M.I.C. It is filed as cell-based. Here is the method:
as §1, §2, §3

Assay [5] concerns K. pneumoniae. Kind of assay: Agar dilution assay, M.I.C. Type of assay: cell-based. The conditions noted are these: for minimum inhibitory concentration (M.I.C.): agar dilution, K. pneumoniae. Here is the method:
as §1, §2, §3

The subject of assay [6] is Prot. vulgaris. The assay is described as follows: Agar dilution assay, M.I.C. Type of assay: cell-based. Here is the method: as §1, §2, §3
For assay [7], the system named is Ps. aeruginosa. The assay is described as follows: Agar dilution assay, M.I.C. It is filed as cell-based. Here is the method:
as §1, §2, §3

Assay [8] has as its system S. aureus. The assay is described as follows: Agar dilution assay, M.I.C. It is filed as cell-based. The conditions noted are these: for minimum inhibitory concentration (M.I.C.): agar dilution, S. aureus. Here is the method:
as §1, §2, §3

The test system of assay [9] is Sal. typhimurium. The assay is described as follows: Agar dilution assay, M.I.C. It is filed as cell-based. Here is the method: as §1, §2, §3
The subject of assay [10] is Ser. marcescens. The assay is described as follows: Agar dilution assay, M.I.C. Type of assay: cell-based. Here is the method:
as §1, §2, §3

For assay [11], the system named is Strep. faecalis. Kind of assay: Agar dilution assay, M.I.C. It is filed as cell-based. Here is the method: as §1, §2, §3
The subject of assay [12] is cystathionine synthetase. The note with it: synthesis of cystathionine from serine; cited from earlier work.
For assay [13], the system named is eleven representative strains of pathogenic bacteria. The assay is described as follows: Agar dilution assay, panel of eleven strains. Type of assay: cell-based. The conditions noted are these: for number of test species against which activity is shown: M.I.C. equal to or less than 256 indicates antibacterial activity. Here is the method:
as §1, §2

Values after ≈ are worked out from the molar mass of the structure shown.

As for `C=C(F)C(NC(=O)[C@@H](N)CCC)C(=O)O` (stereo partly drawn) [(L)-NVA-(DL)-F-vinylgly, (L,DL)-Norvalyl-3-fluorovinylglycine trifluoracetate], the “minimum inhibitory concentration (M.I.C.)” value in assay [1] is 4 mg/mL (≈ 18.3 mM); in assay [2], 128 mg/mL (≈ 587 mM); in assay [3], 8 mg/mL (≈ 36.7 mM); in [4] it was 64 mg/mL (≈ 293 mM); in assay [5], 128 mg/mL (≈ 587 mM); in assay [6], over 256 mg/mL. The “minimum inhibitory concentration (M.I.C.)” value was over 256 mg/mL in assay [7]; 1.0 mg/mL (≈ 4.58 mM) in assay [8]; 256 mg/mL (≈ 1170 mM) in assay [9]; 256 mg/mL (≈ 1170 mM) in assay [10]; over 256 mg/mL in assay [11].

Regarding `N[C@@H](C=CCl)C(=O)O` [(L)Cl vinylgly, L-3-chlorovinylglycine], the “minimum inhibitory concentration (M.I.C.)” value was over 256 mg/mL in assay [2]; over 256 mg/mL in [3]; 256 mg/mL (≈ 1890 mM) in assay [5]; over 256 mg/mL in assay [6]; over 256 mg/mL in assay [7]; 128 mg/mL (≈ 944 mM) in assay [8]. Also, the “minimum inhibitory concentration (M.I.C.)” value in assay [9] and in assay [10] was over 256 mg/mL in each case. Besides, the “antibacterial activity (in words)” value in assay [5] (vs K. pneumoniae) and in assay [8] (vs S. aureus) was “exhibits antibacterial activity” in each case.

For `C=C(Cl)C(NC(=O)[C@@H](N)CCC)C(=O)O` (mixture of isomers) [(L)-NVA-(DL)-Cl-vinylgly, L-norvalyl-D,L-3-chlorovinylglycine], the “minimum inhibitory concentration (M.I.C.)” value in [1] was 4 mg/mL; in assay [2], over 256 mg/mL; in assay [3], 128 mg/mL; in assay [5], 32 mg/mL; in assay [6] it was 256 mg/mL; in [7] it was over 256 mg/mL. Also, the “minimum inhibitory concentration (M.I.C.)” value was at most 0.25 mg/mL in assay [8], 256 mg/mL in [9], over 256 mg/mL in [10] and 4 mg/mL in assay [11].

For `C=C(Cl)C(N)C(=O)O` (racemic) [racemic 3-chlorovinylglycine, 2-amino-3-chloro-3-butenoic acid], the “inactivation of cystathionine synthetase (in words)” value in assay [12] is on record as “not being an inactivator”.

Consider `C=C(Cl)[C@H](NC(=O)[C@@H](N)CCC)C(=O)O.O=C(O)C(F)(F)F` [(L)-NVA-(L)-Cl-vinylgly, (L,L)-Norvalyl 3-chlorovinylglycine trifluoroacetate], for which the “minimum inhibitory concentration (M.I.C.)” value in assay [1] was 1 mg/mL; in assay [2] it was 8 mg/mL; in [3] it was 32 mg/mL; in assay [5], 2 mg/mL; in [6], 256 mg/mL; in assay [7] it was over 256 mg/mL. For the same molecule, the “minimum inhibitory concentration (M.I.C.)” value in assay [8] is 0.5 mg/mL; in assay [9], 64 mg/mL; in [10] it was over 256 mg/mL; in assay [11], 4 mg/mL. Besides, in assay [13], the “number of test species against which activity is shown” value is on record as 8 of 11.

Take `C=C(F)[C@@H](NC(=O)[C@@H](N)CCC)C(=O)O.O=C(O)C(F)(F)F` [(L)-NVA-(D)-F-vinylgly, (L,D)-Norvalyl-3-fluorovinylglycine trifluoroacetate]: the “minimum inhibitory concentration (M.I.C.)” value in assay [1], in assay [2], in [3], in assay [5], in [6] and in [7] was over 256 mg/mL throughout. The “minimum inhibitory concentration (M.I.C.)” value in [8], in assay [9], in assay [10] and in [11] was over 256 mg/mL throughout.

`C=C(F)[C@H](NC(=O)[C@@H](N)CCC)C(=O)O.O=C(O)C(F)(F)F` [(L)-NVA-(L)-F-vinylgly, (L,L)-Norvalyl-3-fluorovinylglycine trifluoroacetate]: the “minimum inhibitory concentration (M.I.C.)” value turned out to be 2 mg/mL in [1]; 16 mg/mL in assay [2]; 4 mg/mL in assay [3]; 32 mg/mL in [4]; 2 mg/mL in assay [5]; 32 mg/mL in assay [6]. Moreover, the “minimum inhibitory concentration (M.I.C.)” value was over 256 mg/mL in assay [7]; over 256 mg/mL in assay [8]; 128 mg/mL in [9]; 64 mg/mL in [10]; 64 mg/mL in [11]. The “number of test species against which activity is shown” value in [13] is given as 9 of 11. The “antibacterial activity compared with the (L,D) diastereomer” value in [13] (antibacterial agar dilution assay) is recorded as “more active”.

In the case of `CCC[C@H](N)C(=O)N[C@H](C=CCl)C(=O)O` [(L)-NVA-(D)-Cl-vinylgly, L-norvalyl-D-3-chlorovinylglycine], the “minimum inhibitory concentration (M.I.C.)” value in [1] is 32 mg/mL (≈ 136 mM); in assay [2], 256 mg/mL (≈ 1090 mM); in [3] it was over 256 mg/mL; in [5], 64 mg/mL (≈ 273 mM); in assay [6] it was over 256 mg/mL; in assay [7], over 256 mg/mL. The “minimum inhibitory concentration (M.I.C.)” value in [8] turned out to be 16 mg/mL (≈ 68.2 mM); in assay [11], 128 mg/mL (≈ 545 mM).
